Source: US20240122957A1, “USE OF NICOTINAMIDE MONONUCLEOTIDE (NMN) FOR THE PREVENTION AND/OR TREATMENT OF RHEUMATOID ARTHRITIS, AND CORRESPONDING COMPOSITIONS” (NUVAMID SA, priority 2019, published 2024)
Entries after “also recorded” stand apart in the source; their conditions may differ. Read-outs that look alike come from different tables or passages of the source.

Assays:
[1] = system: C57BL6/J mice treated with K/BxN serum (RA model); assay: K/BxN serum-induced RA model in mice (clinical score, paw thickness, paw photographs); type: in vivo
Experimental: Here, NMN was used in zwitterionic form. […] Dexamethasone was administered subcutaneously.

[2] = in vivo
Experimental: (§1) In brief, 8-week-old female C57BL6/J mice, weighing between 18-20 g on day 0 of the experiments, were divided into 4 group of 10 mice each: (i) a control group, in which the mice were treated with vehicle, i.e. a 0.9% NaCl solution (10 mL/kg), marked ‘Vehicle’; (ii) a group of mice treated with K/BxN serum (10 mL/kg), marked ‘KBxN’; (iii) a group of mice treated with K/BxN serum+dexamethasone (1 mg/kg), marked ‘KBxN+dexamethasone’; and (iv) a group of mice treated with K/BxN serum+NMN (185 mg/kg), marked ‘KBxN+NMN’.
(§2) The administration of this serum induced chronic joint inflammation in mice in order to mimic RA. […] Here, NMN was used in zwitterionic form. KBxN serum and NMN were administered intraperitoneally to the nice. Dexamethasone was administered subcutaneously.
(§3) The mice were treated for 9 days under the conditions set forth supra. Photos of the paws of the mice were taken on the 6th day of treatment. […] The clinical score and weight of the mice were measured daily. The clinical score was determined by measuring the thickness of each of the front and rear paws of the mice, and adding the associated score according to table 1 infra:
(§4) The statistical analysis of the results was carried out using two-factor ANOVA combined with the Dunnett multiple comparison test.

[3] = Weight and tolerance of mice in the K/BxN serum RA model
Experimental: as §1, §2, §3, §4

SMILES | paw swelling (photographs of the paws) ([1]; day 6 of treatment, compared to mouse treated with K/BxN, FIG. 4) | average paw thickness (ankle joint inflammation) ([1]; versus KBxN group, NMN 185 mg/kg intraperitoneally, dexamethasone 1 mg/kg subcutaneously, FIG. 3) | average clinical score ([1]; versus KBxN group, NMN 185 mg/kg intraperitoneally, dexamethasone 1 mg/kg subcutaneously, measured daily, 9 days, FIG. 2) | paw appearance compared to mouse treated with vehicle (photographs) [2] | tolerance ([3]; K/BxN serum-treated mice, NMN 185 mg/kg intraperitoneally, 9 days, FIG. 1) | paw appearance compared to mouse treated with vehicle (photographs) ([3]; day 6 of treatment, FIG. 4) | average weight of mice (weight loss) ([3]; relative to KBxN group, NMN 185 mg/kg intraperitoneally, dexamethasone 1 mg/kg subcutaneously, 9 days, FIG. 1)
NC(=O)c1ccc[n+]([C@@H]2O[C@H](COP(=O)([O-])O)[C@@H](O)[C@H]2O)c1 [NMN, nicotinamide mononucleotide] | substantially reduces paw swelling | significantly reduced ankle joint inflammation starting on day 5 | significant reduction in clinical score starting on day 5; also recorded: pronounced starting on day 8 | volume similar to that of the mouse treated with vehicle | well tolerated | – | –
C[C@@H]1C[C@H]2[C@@H]3CCC4=CC(=O)C=C[C@]4(C)[C@@]3(F)[C@@H](O)C[C@]2(C)[C@@]1(O)C(=O)CO [dexamethasone] | – | – | – | – | – | much more slender than that of the mouse treated with vehicle | additional and significant weight loss
